1 substance from patent US6365187B2, “Bioadhesive microspheres and their use as drug delivery and imaging systems” (priority 1992, dated 2002) can be followed below.

For the data set the following is noted: rat, in vivo.

Method: The animals were then housed in metabolic cages and the feces were collected every three hours for a period of four days. At given time intervals, the rats were X-rayed, and the distribution of the microspheres in the stomach and in the intestine was followed. The collected feces were also X-rayed in order to monitor the total transit time of the microspheres through the GI tract.
Tests were conducted in areas of distinct pH and physiology: the stomach (low pH range), and the intestine (basic environment, pH ranging from 5-7, in the proximal to distal regions, respectively), FIGS. 6a, 6b, and 6c.

Consider alginate, for which the “retention time in the intestine, ranking” value is given as “longest retention time from the group of hydrogels”.
